Data on 7 molecules can be found in paper PMC7203973 (ACS Omega, 2020).

For series [1] the following is noted: marketed drugs; cited from earlier work.
A short description of series [2]: Permeability by PAMPA. The class given is in vitro ADME. For orientation: In PAMPA a lipid-coated filter parts donor from acceptor wells.
For series [3] the following is noted: cited from earlier work.
The conditions of series [4]: cited from earlier work. This is another data set of the same source.
The conditions of series [5]: cited from earlier work. The source holds these as a separate data set.
For series [6] the following is noted: cited from earlier work. The source holds these as a separate data set.

On to `CCN(CC)CCOC(=O)c1ccc(N)cc1` [procaine], for which the “stability in rat plasma versus human plasma” value in series [1] was “vice verse”.
`C[C@]12CC[C@H]3[C@@H](CCC4=CC(=O)CC[C@@]43C)[C@@H]1CC[C@@H]2O` [testosterone]: the Papp (in general, a coefficient for how fast a substance crosses the barrier) at 5 h, 25 μM in series [2] was 102 ×10⁻⁶ cm/s. The “partition coefficient (log P), reported value” in series [3] is “around 3.28”. In series [4], the “permeability (log Pe), reported results” value was −3.5 to −4.9.
Take `CCOC(=O)[C@H](CCc1ccccc1)N[C@@H](C)C(=O)N1CCC[C@H]1C(=O)O` [enalapril]: the “stability in rat plasma versus human plasma” value in series [1] was “very less stable in rat plasma but more stable in human plasma”.
Turning to `CO[C@H]1C[C@@H]2CC[C@@H](C)[C@@](O)(O2)C(=O)C(=O)N2CCCC[C@H]2C(=O)O[C@H]([C@H](C)C[C@@H]2CC[C@@H](O)[C@H](OC)C2)CC(=O)[C@H](C)/C=C(\C)[C@@H](O)[C@@H](OC)C(=O)[C@H](C)C[C@H](C)/C=C/C=C/C=C/1C` [rapamycin], in series [5], the “blood-to-plasma ratio (KRBC/Plasma), reported in the literature” value (“blood-to-plasma ratio (KRBC/Plasma)” below) is reported as 3.5 ± 0.5.
Turning to `CCN(CC)CCCC(C)Nc1ccnc2cc(Cl)ccc12` (stereo not drawn) [chloroquine], in series [5], the “blood-to-plasma ratio (KRBC/Plasma)” value was 8.5 ± 0.1.
With `NS(=O)(=O)c1cc(C2(O)NC(=O)c3ccccc32)ccc1Cl` (stereo not drawn) [chlorthalidone], the “blood-to-plasma ratio (KRBC/Plasma)” value in series [5] is on record as 20.0 ± 0.3.
For `CO[C@H]1/C=C/O[C@@]2(C)Oc3c(C)c(O)c4c(O)c(c(/C=N/N5CCN(C)CC5)c(O)c4c3C2=O)NC(=O)/C(C)=C\C=C\[C@H](C)[C@H](O)[C@@H](C)[C@@H](O)[C@@H](C)[C@H](OC(C)=O)[C@@H]1C` [rifampicin], the “plasma protein binding, reported results” value in series [6] is reported as 82–92%.
